Experimental data published in US20230263909A1, “ENHANCED EFFECTS OF GENE-IMMUNOTHERAPY AND IMMUNOSUPPRESSANTS IN MULTIPLE SCLEROSIS” (University of Florida Research Foundation, Incorporated, priority 2020, published 2023).
Read-outs that look alike come from different tables or passages of the source.

Assays:
[1] = tested on: plasma alanine aminotransferase (ALT); test: Plasma alanine aminotransferase (ALT) activity; format: in vivo, C57BL/6 mice
Text: Although various proteins have been safely expressed in the liver following AAV gene transfer,^89 evaluating the long-term stability of MOG expression in hepatocytes in the context of induced EAE was of interest. […] Additionally, hepatocyte expression of MOG persisted in the mice that received AAV8.MOG until termination of experiment at 200 days after EAE induction (FIG. 20A).
Plasma ALT levels were also monitored as an indicator of liver damage and failure of therapy. As reported above, the level of ALT activity detected in AAV8.MOG-treated mice and control mice was unremarkable throughout the rapamycin treatment window (FIGS. 24G and 24H). […] Based on the profound level of neurological impairment the control mice were experiencing, the significant rise in ALT is indicative of liver toxicity associated with end-stage organ failure (FIGS. 24B and 24C).

[2] = tested on: established MOG35-55-induced EAE; test: Therapeutic AAV8.MOG with transient rapamycin immunosuppression in established EAE; format: in vivo, C57BL/6 mice
Experimental: Vector Administration. […] Two weeks later, EAE was induced. To evaluate the therapeutic effect of vector administration, EAE was induced first in 9- to 11-week-old mice before the administration of vectors. As mice reached the targeted/indicated severity of disease they were injected with […] of AAV8.MOG or control vector (scAAV.GFP or sham/PBS) via the tail vein. Rapamycin (LC Laboratories, Woburn, MA, USA) was dissolved in a vehicle solution containing (0.2% w/v) carboxymethyl-cellulose sodium salt (C-5013) and (0.25% v/v) polysorbate-80 (P-8074) (Sigma, St. Louis, MO, USA) in distilled water and stored at 4° C. protected from light according to the manufacturer’s instructions. Rapamycin (5 mg/kg) was given i.p. as indicated for a total of three and five doses beginning on the day of vector administration.
To test the hypothesis, the experimental parameters that previously produced the smallest degree of disease reversal were reestablished (FIG. 23C). EAE was induced and AAV8.MOG treatment was withheld until mice developed complete tail paralysis with hind-leg paresis (MCS: 1.4 ± 0.1, combined). Immediately after being treated with either AAV8.MOG or PBS/control, all mice received an intraperitoneal injection of rapamycin (5 mg/kg). Subsequently, mice received two additional doses of rapamycin (5 mg/kg) 48 hr apart (FIGS. 24). As expected, EAE disease progressed quickly and both groups of mice developed severe neurological deficits and paralysis (peak MCS: 2.9-3.0) (FIG. 24A). […] In contrast, neurological deficits in AAV8.MOG-treated mice continued to decrease, and all but one animal (90%) achieved complete remission (final MCS: 0.5 ± 0.3) (FIG. 24A).
Next, the effectiveness of the combined immunotherapy in late and end-stage EAE disease was tested. […] Remarkably, mice that received the AAV8.MOG/rapamycin immunotherapy, 71% (FIG. 24B) and 80% (FIG. 24C), respectively, responded to the treatment and went into near-complete remission (MCS: […]) by day ~30.

CD4+CD25hiFOXP3+ Tregs = test: Peripheral blood Treg phenotyping before and after rapamycin; format: in vivo, C57BL/6 mice; settings: after rapamycin
Text: Flow Cytometry. Peripheral blood cells or splenocytes harvested from mice and processed to produce single-cell suspensions were stained with antibodies to CD3 (145-2C11), CD4 (RM4-5), CD25 (PC61), CD8 (53-6.7), B220 (RA3-6B2), CD44 (IM7), and CD62L (MEL14) (BD Biosciences, San Jose, CA, USA). Class II MHC tetramers included MOG38-49/I-Ab class II MHC (GWYRSPFSRVVH) and h.CLIP87-101 (PVSKMRMATPLLMQA), and were provided by the NIH Tetramer Core (Emory University, Atlanta, GA, USA). Red blood cell lysis was performed with VersaLyse (Beckman Coulter, Brea, CA, USA). Intracellular staining for FOXP3 was performed using the FOXP3 staining kit (eBioscience, San Diego, CA, USA). Samples were analyzed on an LSR-II flow cytometer (BD Biosciences) and post-analyzed using FCS Express 4 (Denovo Software, Los Angeles, CA, USA).
Rapamycin blocks the activation of a serine/threonine protein kinase called mammalian target of rapamycin (mTOR), which has a potent anti-proliferative effect on antigen-stimulated effector T and B cells. […] In contrast, when analyzed after the final rapamycin dose on day 10, there was an ~33% difference in total Tregs between control mice receiving rapamycin alone and AAV8.MOG-treated animals (FIGS. 24D and 24E).
CD44 is a cell-surface glycoprotein involved in cell-to-cell interactions that are important in activation, migration, and apoptosis.

MOG35-55-induced EAE = settings: vector at MCS <2.5, PRDL at MCS ≥ 3.0 (FIG. 33A)
Experimental: Using 8-week-old Female C57BL/6 mice, EAE was induced with a myelin oligodendrocyte glycoprotein epitope (MOG35-55) in CFA. As mice developed disease (MCS 2.0± 0.5), mice were injected with a hepatocyte-directed viral vector encoding MOG (e.g., AAV.MOG vector) and began daily administration of prednisolone (PRDL) via oral gavage (10 mg/kg animal) every 24 hours until day 7. Control mice were treated with prednisolone only, without the administration of vector or with Null vector. At day 7, prednisolone treatment was discontinued, except for the half of the control group receiving treatment which continued receiving prednisolone.
An experiment was performed to assess the effect of supplementing rAAV therapy with PRDL in high clinical score mice. C57BL/6 mice were administered AAV.MOG or AAV.Null control at disease onset, or a mean clinical score of 2.0±0.5. Subsequently, at the peak of disease, or an MCS ≥ 3.0, mice were administered oral gavage of PRDL (10 mg/kg). […] Subsequently, at an MCS ≥ 3.0, mice were administered oral gavage of PRDL (10 mg/kg).
In an experiment in which the order of administrations was essentially reversed, C57BL/6 mice received AAV.MOG or AAV.Null after EAE developed to an MCS of 2.5 or higher. At the peak of disease (MCS ≥3.0), mice were started on oral gavage of PRDL as before.

| Structure (SMILES) | plasma ALT levels ([1]; 35 days post-treatment) | plasma ALT activity ([1]; throughout the rapamycin treatment window) | final MCS ([2]; rapamycin-only control mice, 35 days post-treatment, late-stage cohorts) | final MCS ([2]; treated at MCS 1.4 ± 0.1, all mice rapamycin 5 mg/kg i.p. x3) | mice relapsed by day 10 ([2]; treated at MCS 1.4 ± 0.1, rapamycin without vector) [%] | increase in activated Tregs (CD4+CD44+CD25hiFOXP3+) (CD4+CD25hiFOXP3+ Tregs) [%] | effect of PRDL on induction of tolerance by vector (MOG35-55-induced EAE) | effect of PRDL on induction of tolerance by vector (MOG35-55-induced EAE; listed as PDRL) |
| --- | --- | --- | --- | --- | --- | --- | --- | --- |
| CO[C@H]1C[C@@H]2CC[C@@H](C)[C@@](O)(O2)C(=O)C(=O)N2CCCC[C@H]2C(=O)O[C@H]([C@H](C)C[C@@H]2CC[C@@H](O)[C@H](OC)C2)CC(=O)[C@H](C)/C=C(\C)[C@@H](O)[C@@H](OC)C(=O)[C@H](C)C[C@H](C)/C=C/C=C/C=C/1C [rapamycin] | significant increase in plasma ALT levels | unremarkable | 3.6 ± 0.5 | 3.5 ± 0.3 | 100 | 10.5 |  |  |
| C[C@]12C=CC(=O)C=C1CC[C@@H]1[C@@H]2[C@@H](O)C[C@@]2(C)[C@H]1CC[C@]2(O)C(=O)CO [PRDL, prednisolone] |  |  |  |  |  |  | did not interfere with induction of tolerance | did not interfere with, nor supplement, the ability of AAV.MOG to suppress EAE |
